The values below come from PubChem BioAssay AID256 (DTP/NCI, 2004).

In the test the test system is CD2F1 mice, L1210 leukemia ip, survival T/C. The experiment in a line: NCI In Vivo Anticancer Drug Screen. Data for tumor model L1210 Leukemia (intraperitoneal) in CD2F1 (CDF1) mice. Particulars: higher = longer survival. The method, boiled down: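 Read-out first: treated-group measurement over vehicle-control measurement, expressed as a ratio. Animals bore a transplanted tumor line and were dosed with compound or vehicle.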

Where [1] appears, read: endpoint: mean survival time, dose: 100.0 mg/kg/injection, schedule: Q04DX003 (ip), vehicle: saline.
The mark [2] stands for this setting: endpoint: mean survival time, dose: 200.0 mg/kg/injection, schedule: Q04DX003 (ip), vehicle: saline.
Setting [3] is: endpoint: mean survival time, dose: 100.0 mg/kg/injection, schedule: Q01DX009 (ip), vehicle: other.

“And” between values parts separate entries of the source, which are not always exact repeats. Equal values may be shown once. Inconclusive results and toxic doses are left out.

In the case of `CC12COC(=O)C1(C)C1CCC2O1` (stereo not given), the T/C runs as follows: (endpoint: mean survival time, dose: 1.0 mg/kg/injection, schedule: Q04DX002 (ip), vehicle: saline) 92 % of control; (endpoint: mean survival time, dose: 2.0 mg/kg/injection, schedule: Q04DX002 (ip), vehicle: saline) 88 % of control; (endpoint: mean survival time, dose: 4.0 mg/kg/injection, schedule: Q04DX002 (ip), vehicle: saline) 92 % of control; (endpoint: mean survival time, dose: 5.0 mg/kg/injection, schedule: Q01DX002 (ip), vehicle: saline with Tween-80) 100 % of control; (endpoint: mean survival time, dose: 10.0 mg/kg/injection, schedule: Q01DX002 (ip), vehicle: saline with Tween-80) 108 % of control.

Turning to `O=C1C2(c3ccccc3)CCC1(c1ccccc1)C(c1ccccc1)=C2c1ccccc1`, the T/C was 94 % of control (endpoint: mean survival time, dose: 25.0 mg/kg/injection, schedule: Q01DX001 (ip), vehicle: saline with Tween-80); 87 % of control (endpoint: mean survival time, dose: 50.0 mg/kg/injection, schedule: Q01DX001 (ip), vehicle: saline with Tween-80); 90 % of control (endpoint: mean survival time, dose: 100.0 mg/kg/injection, schedule: Q01DX001 (ip), vehicle: saline with Tween-80).

Turning to `O=C(O)CSc1ccccc1`, the T/C reads like this: (endpoint: mean survival time, dose: 25.0 mg/kg/injection, schedule: Q04DX003 (ip), vehicle: other) 98 % of control; (endpoint: mean survival time, dose: 50.0 mg/kg/injection, schedule: Q04DX003 (ip), vehicle: other) 98 % of control; under setting [1], 100 % of control; under setting [2], 98 % of control.

In the case of `CC(C)(CO)CBr`, the T/C by setting is: (endpoint: mean survival time, dose: 100.0 mg/kg/injection, schedule: Q01DX009 (ip), vehicle: saline with Tween-80) 95 % of control; (endpoint: mean survival time, dose: 100.0 mg/kg/injection, schedule: Q04DX003 (ip), vehicle: saline with Tween-80) 95 % of control; (endpoint: mean survival time, dose: 200.0 mg/kg/injection, schedule: Q01DX009 (ip), vehicle: saline with Tween-80) 102 % of control; (endpoint: mean survival time, dose: 200.0 mg/kg/injection, schedule: Q04DX003 (ip), vehicle: saline with Tween-80) 97 % of control; (endpoint: mean survival time, dose: 400.0 mg/kg/injection, schedule: Q01DX009 (ip), vehicle: saline with Tween-80) 98 % of control; (endpoint: mean survival time, dose: 400.0 mg/kg/injection, schedule: Q04DX003 (ip), vehicle: saline with Tween-80) 95 % of control.

On to `COc1ccc(NC(=O)Nc2ccccc2C)c(Cl)c1`, for which the T/C reads like this: (endpoint: mean survival time, dose: 25.0 mg/kg/injection, schedule: Q04DX002 (ip), vehicle: saline with Tween-80) 94 % of control; (endpoint: mean survival time, dose: 50.0 mg/kg/injection, schedule: Q04DX002 (ip), vehicle: saline with Tween-80) 98 % of control; (endpoint: mean survival time, dose: 100.0 mg/kg/injection, schedule: Q04DX002 (ip), vehicle: saline with Tween-80) 86 % of control and 90 % of control; (endpoint: mean survival time, dose: 400.0 mg/kg/injection, schedule: Q04DX002 (ip), vehicle: saline with Tween-80) 86 % of control.

As for `Nc1cc2c(nnn2C(c2ccccc2)c2ccccc2)c(N)n1`, the T/C by setting is: (endpoint: mean survival time, dose: 100.0 mg/kg/injection, schedule: Q01DX001 (ip), vehicle: carboxymethylcellulose (CMC)) 98 % of control; (endpoint: mean survival time, dose: 200.0 mg/kg/injection, schedule: Q01DX001 (ip), vehicle: carboxymethylcellulose (CMC)) 92 % of control; (endpoint: mean survival time, dose: 400.0 mg/kg/injection, schedule: Q01DX001 (ip), vehicle: carboxymethylcellulose (CMC)) 95 % of control.

As to `Nc1ccn(C2OC(COP(=O)(O)Oc3ccccc3)C(O)C2O)c(=O)n1` (stereo not given), the T/C by setting is: (endpoint: mean survival time, dose: 12.5 mg/kg/injection, schedule: Q01DX009 (ip), vehicle: suspension in saline) 162 % of control; (endpoint: mean survival time, dose: 25.0 mg/kg/injection, schedule: Q01DX009 (ip), vehicle: suspension in saline) 194 % of control; (endpoint: mean survival time, dose: 50.0 mg/kg/injection, schedule: Q01DX009 (ip), vehicle: suspension in saline) 202 % of control; (endpoint: mean survival time, dose: 100.0 mg/kg/injection, schedule: Q01DX009 (ip), vehicle: suspension in saline) 223 % of control.

Take `N#CC(CCN1CCCCC1)(c1ccccc1)c1ccccc1`: the T/C is, setting by setting: under setting [1], 97 % of control; under setting [2], 102 % of control; (endpoint: mean survival time, dose: 400.0 mg/kg/injection, schedule: Q04DX003 (ip), vehicle: saline) 97 % of control.

Turning to `Cc1ccc(C(=O)CC(O)(C(F)(F)F)C(F)(F)F)cc1`, the T/C by setting is: under setting [3], 106 % of control; (endpoint: mean survival time, dose: 400.0 mg/kg/injection, schedule: Q01DX009 (ip), vehicle: other) 112 % of control.

On to `Nc1cccc(Oc2ccc([N+](=O)[O-])cc2)c1`, for which the T/C is, setting by setting: (endpoint: mean survival time, dose: 100.0 mg/kg/injection, schedule: Q01DX001 (ip), vehicle: Klucel (hydroxypropylcellulose) (HPC)) 97 % of control; (endpoint: mean survival time, dose: 200.0 mg/kg/injection, schedule: Q01DX001 (ip), vehicle: Klucel (hydroxypropylcellulose) (HPC)) 97 % of control.

`COc1cc([C@@H]2c3cc4c(c(O)c3C[C@H]3COC(=O)[C@@H]32)OCO4)cc(OC)c1O`: the T/C is 102 % of control (endpoint: mean survival time, dose: 125.0 micrograms/kg/injection, schedule: Q01DX009 (ip), vehicle: saline); 108 % of control (endpoint: mean survival time, dose: 250.0 micrograms/kg/injection, schedule: Q01DX009 (ip), vehicle: saline); 110 % of control (endpoint: mean survival time, dose: 500.0 micrograms/kg/injection, schedule: Q01DX009 (ip), vehicle: saline); 122 % of control (endpoint: mean survival time, dose: 1000.0 micrograms/kg/injection, schedule: Q01DX009 (ip), vehicle: saline); 118 % of control (endpoint: mean survival time, dose: 2000.0 micrograms/kg/injection, schedule: Q01DX009 (ip), vehicle: saline).

`CCC(C)(CC)OC(=O)c1ccc([N+](=O)[O-])cc1`: the T/C reads like this: (endpoint: mean survival time, dose: 100.0 mg/kg/injection, schedule: Q01DX001 (ip), vehicle: saline) 100 % of control; (endpoint: mean survival time, dose: 200.0 mg/kg/injection, schedule: Q01DX001 (ip), vehicle: saline) 98 % of control; (endpoint: mean survival time, dose: 400.0 mg/kg/injection, schedule: Q01DX001 (ip), vehicle: saline) 98 % of control.

Turning to `COc1ccn(C2OCCC(OC(C)=O)C2O)c(=O)n1` (stereo not given), the T/C was 107 % of control (endpoint: median survival time, dose: 12.5 mg/kg/injection, schedule: Q01DX005 (ip), vehicle: alkali diluted with saline); 120 % of control (endpoint: median survival time, dose: 25.0 mg/kg/injection, schedule: Q01DX005 (ip), vehicle: alkali diluted with saline); 120 % of control (endpoint: median survival time, dose: 50.0 mg/kg/injection, schedule: Q01DX005 (ip), vehicle: alkali diluted with saline); 102 % of control (endpoint: median survival time, dose: 100.0 mg/kg/injection, schedule: Q01DX005 (ip), vehicle: alkali diluted with saline); 109 % of control (endpoint: median survival time, dose: 200.0 mg/kg/injection, schedule: Q01DX005 (ip), vehicle: alkali diluted with saline).

For `O=C(C1CCCCC1)C1CCC2(CCCCC2)CC1`, the T/C is 92 % of control (endpoint: mean survival time, dose: 12.5 mg/kg/injection, schedule: Q01DX009 (ip), vehicle: other); 87 % of control (endpoint: mean survival time, dose: 25.0 mg/kg/injection, schedule: Q01DX009 (ip), vehicle: other); 93 % of control (endpoint: mean survival time, dose: 50.0 mg/kg/injection, schedule: Q01DX009 (ip), vehicle: other); 92 % of control under setting [3]; 95 % of control (endpoint: mean survival time, dose: 200.0 mg/kg/injection, schedule: Q01DX009 (ip), vehicle: other).

On to `CC1(C)OC2C(/C=N\O)OC(n3cnc4c(N)ncnc43)C2O1` (stereo not given), for which the T/C is, setting by setting: (endpoint: median survival time, dose: 12.5 mg/kg/injection, schedule: Q01DX005 (ip), vehicle: distilled water + Tween-80) 98 % of control; (endpoint: median survival time, dose: 25.0 mg/kg/injection, schedule: Q01DX005 (ip), vehicle: distilled water + Tween-80) 90 % of control; (endpoint: median survival time, dose: 50.0 mg/kg/injection, schedule: Q01DX005 (ip), vehicle: distilled water + Tween-80) 96 % of control; (endpoint: median survival time, dose: 100.0 mg/kg/injection, schedule: Q01DX005 (ip), vehicle: distilled water + Tween-80) 101 % of control; (endpoint: median survival time, dose: 200.0 mg/kg/injection, schedule: Q01DX005 (ip), vehicle: distilled water + Tween-80) 101 % of control.

For the compound `COc1cc2ccc(C=O)cc2cc1OC`, the T/C (endpoint: mean survival time, dose: 12.5 mg/kg/injection, schedule: Q01DX009 (ip), vehicle: Klucel (hydroxypropylcellulose) (HPC)) is 97 % of control; the T/C (endpoint: mean survival time, dose: 25.0 mg/kg/injection, schedule: Q01DX009 (ip), vehicle: Klucel (hydroxypropylcellulose) (HPC)) was 94 % of control; the T/C (endpoint: mean survival time, dose: 50.0 mg/kg/injection, schedule: Q01DX009 (ip), vehicle: Klucel (hydroxypropylcellulose) (HPC)) was 92 % of control; the T/C (endpoint: mean survival time, dose: 100.0 mg/kg/injection, schedule: Q01DX009 (ip), vehicle: Klucel (hydroxypropylcellulose) (HPC)) was 86 % of control; the T/C (endpoint: mean survival time, dose: 200.0 mg/kg/injection, schedule: Q01DX009 (ip), vehicle: Klucel (hydroxypropylcellulose) (HPC)) is 86 % of control; the T/C (endpoint: mean survival time, dose: 400.0 mg/kg/injection, schedule: Q01DX009 (ip), vehicle: Klucel (hydroxypropylcellulose) (HPC)) was 90 % of control.
